Results on eleven compounds are retold here after patent US20250154169A1, “COMPOUNDS AND METHODS FOR MODULATING SPLICING” (REMIX THERAPEUTICS INC., priority 2021, published 2025).

Values joined by “and” are separate entries in the source; they are usually repeats but may differ in a detail not shown here. Equal entries are not always repeated.

One assay has as its system Target C mRNA. Description: Splicing RT-qPCR gene panel, Target C canonical junction (CJ) mRNA. In kind it is cell-based, human. Particulars: Homo sapiens, Tables 4A/4B, read-out: Target C (IC50, decrease in CJ mRNA, gene panel). An outline of the steps: (§1)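 Cells (A673 in DMEM/10% FBS, K562 in IMDM/10% FBS) got compound for 24 h, top dose 10 uM, 11 points, 3-fold steps, DMSO ≤0.25%. Lysates went to RT-qPCR for the canonical exon-exon junction; ΔΔCt against housekeeper and DMSO gave RQ, then percentage response.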
(Real-time PCR tracks product formation cycle by cycle.)

In a further assay the test system is SMN2 mRNA. Description: Splicing RT-qPCR gene panel, SMN2 canonical junction (CJ) mRNA. In kind it is cell-based, human. Particulars: Homo sapiens, Tables 4A/4B, read-out: SMN2 (IC50, decrease in CJ mRNA, gene panel). An outline of the steps:
as §1

Another assay concerns HTT mRNA. Description: Splicing RT-qPCR gene panel, HTT canonical junction (CJ) mRNA. To be noted: Homo sapiens, Tables 4A/4B, read-out: HTT (IC50, decrease in CJ mRNA, gene panel). Format: cell-based, human. The method, boiled down: as §1
The next assay deals with MYB. Description: Protein abundance, HiBit-assay system (Promega), MYB. Particulars: Table 6; HiBiT-modified K562 cells, 24 hours. Format: cell-based. An excerpt:
In some embodiments, a compound of Formula (I) or (II) or a pharmaceutically acceptable salt thereof, e.g., as described herein, modulates the expression of a target protein (e.g., HTT or MYB) in a reference cell or sample. In an embodiment, a compound of Formula (I) or (II) or a pharmaceutically acceptable salt thereof, e.g., as described herein, increases the expression of a target protein (e.g., HTT or MYB) in a reference cell or sample. In an embodiment, a compound of Formula (I) or (II) or a pharmaceutically acceptable salt thereof, e.g., as described herein, decreases the expression of a target protein (e.g., HTT or MYB) in a reference cell or sample. The effect of an exemplary compound of Formula (I) or (II) on protein abundance may be measured using a standard assay for measuring protein abundance, such as the HiBit-assay system (Promega). In this assay, percent response for each respective cell line may be as calculated at each compound concentration as follows: % response=100*(S−PC)/(NC−PC). For the normalized response at each concentration, a four-parameter logistical regression may be fit to the data and the response may be interpolated at the 50% value to determine a concentration for protein abundance at 50% (IC50) an untreated control. In an embodiment, a compound of Formula (I) or (II) or a pharmaceutically acceptable salt thereof, e.g., as described herein, has a protein abundance response less than 100 nM. In an embodiment, a compound of Formula (I) or (II) or a pharmaceutically acceptable salt thereof, e.g., as described herein, has a protein abundance response between 100-1000 nM. In an embodiment, a compound of Formula (I) or (II) or a pharmaceutically acceptable salt thereof, e.g., as described herein, has a protein abundance response greater than 1000 nM. In an embodiment, a compound of Formula (I) or (II) or a pharmaceutically acceptable salt thereof, e.g., as described herein, has a protein abundance response greater than 10 uM. In an embodiment, a compound of Formula (I) or (II) or a pharmaceutically acceptable salt thereof, e.g., as described herein, modulates the protein abundance of a target protein by about 1%, 5%, 10%, 15%, 20%, 25%, 30%, 35%, 40%, 45%, 50%, 55%, 60%, 65%, 70%, 75%, 80%, 85%, 90%, 95%, 99% or more, e.g., compared with a reference compound.
(In general: HiBiT is a short tag that completes a luciferase, so light tracks the accessible tagged protein.)

As for `Cc1cn2cc(NC(=O)c3ccc(N4CCN(C)C(C)C4)c4cc(C)oc34)cc(F)c2n1` (centres unmarked) [Compound 191], the IC50 with Target C mRNA is 1000 to 10000 nM; in the assay with SMN2 mRNA, below 100 nM; in the assay with HTT mRNA, 100 to 1000 nM; in the assay on MYB it was < 100 nM and 100 to 1000 nM.

`CCC1CN(c2ccc(C(=O)Nc3cc(F)c4nc(C)cn4c3)c3oc(C)cc23)CCN1` (centres unmarked) [Compound 192]: the IC50 in the assay with Target C mRNA was 1000 to 10000 nM; with SMN2 mRNA, below 100 nM; with HTT mRNA, 1000 to 10000 nM; in the assay with MYB, 100 to 1000 nM.

On to `Cc1cn2cc(NC(=O)c3ccc(N4CCNC(C)(C)C4)c4cc(C)oc34)cc(F)c2n1` [Compound 193], for which the IC50 with Target C mRNA is above 10000 nM; in the assay with SMN2 mRNA, below 100 nM; with HTT mRNA, 1000 to 10000 nM; with MYB, 100 to 1000 nM.

As for `Cc1cn2cc(NC(=O)c3ccc(N4CCNC5(CC5)C4)c4cc(C)oc34)cc(F)c2n1` [Compound 194], the IC50 in the assay with Target C mRNA is above 10000 nM; in the assay with SMN2 mRNA it was below 100 nM; in the assay on HTT mRNA, 1000 to 10000 nM; in the assay on MYB it was 100 to 1000 nM.

As for `Cc1cn2cc(NC(=O)c3ccc(N4CC(C)(C)NC(C)(C)C4)c4cc(C)oc34)cc(F)c2n1` [Compound 195], the IC50 in the assay with Target C mRNA was above 10000 nM; in the assay on SMN2 mRNA, below 100 nM; in the assay on HTT mRNA it was above 10000 nM; in the assay on MYB, 1000 to 10000 nM.

Regarding `CCNC1CCN(c2ccc(C(=O)Nc3cc(F)c4nc(C)cn4c3)c3oc(C)cc23)CC1` [Compound 196], the IC50 was 1000 to 10000 nM with Target C mRNA, below 100 nM in the assay with SMN2 mRNA, 1000 to 10000 nM in the assay on HTT mRNA and below 100 nM in the assay with MYB.

With `Cc1cn2cc(NC(=O)c3ccc(N4CCC(NC(C)(C)C)CC4)c4cc(C)oc34)cc(F)c2n1` [Compound 197], the IC50 was above 10000 nM in the assay on Target C mRNA, 100 to 1000 nM in the assay on SMN2 mRNA, above 10000 nM with HTT mRNA and 1000 to 10000 nM in the assay on MYB.

As to `CC1=CC2C(N3CCC(N(C)C)CC3)=CC=C(C(=O)Nc3cc(F)c4nc(C)cn4c3)C2O1` (centres unmarked) [Compound 198], the IC50 with Target C mRNA is 1000 to 10000 nM; in the assay with SMN2 mRNA, below 100 nM; in the assay with HTT mRNA, 1000 to 10000 nM; with MYB, below 100 nM.

Turning to `Cc1cn2cc(NC(=O)c3ccc(N4CCN5CCCC5C4)c4cc(C)oc34)cc(F)c2n1` (centres unmarked) [Compound 199], the IC50 in the assay on Target C mRNA was 1000 to 10000 nM; with SMN2 mRNA, below 100 nM; in the assay on HTT mRNA, 100 to 1000 nM; in the assay on MYB it was below 100 nM.

On to `Cc1cn2cc(NC(=O)c3ccc(C4CCNCC4)c4cn(C)nc34)cc(F)c2n1` [Compound 208], for which the IC50 in the assay with Target C mRNA is 100 to 1000 nM; in the assay with SMN2 mRNA, below 100 nM; in the assay with HTT mRNA, 100 to 1000 nM; in the assay on MYB, below 100 nM.

As to `Cc1cc2c(N3CCNCC3)ccc(C(=O)Nc3cc(F)c4cn(C)nc4c3)c2o1` [Compound 217], the IC50 is above 10000 nM with Target C mRNA, 1000 to 10000 nM with SMN2 mRNA, above 10000 nM with HTT mRNA and above 10000 nM in the assay on MYB.

The IC50 is the concentration that inhibits the measured activity by half.
